Patent publication US8716292B2, “Riminophenazines with 2-(heteroaryl)amino substituents and their anti-microbial activity” (priority 2010, dated 2014)
Values after ≈ are worked out from the molar mass of the structure shown. Read-outs that look alike come from different tables or passages of the source.

Tested on: Mycobacterium tuberculosis H37Rv strains
Assay: In vitro assay for antimicrobial susceptibility (microplate Alamar blue MIC)
Format: cell-based
Settings: for MIC: Mycobacterium tuberculosis, H37RV, read-out: MIC (μg/mL) against H37Rv
[1] = in vitro, Mycobacterium tuberculosis H37Rv strains
[2] = 7H9, Alamar blue, inhibition ≧90%

SMILES: COc1ccc(Nc2cc3nc4ccccc4n(-c4ccc(C(F)(F)F)cc4)c-3c/c2=N\C2CCC(OC)CC2)cn1 (stereo not shown) [TBI-735, 5-(4-Trifluoromethylphenyl)-3-(4-methoxycyclohexyl)imino-2-(6-methoxy-3-pyridyl)amino-3,5-dihydrophenazine]
- MIC [1]: 0.186 µg/mL (≈ 0.324 µM)

SMILES: COc1ccc(Nc2cc3nc4ccccc4n(-c4ccc(C(F)(F)F)cc4)c-3c/c2=N\C2CC2)cn1 [TBI-736, 5-(4-Trifluoromethylphenyl)-3-cyclopropylimino-2-(6-methoxy-3-pyridyl)amino-3,5-dihydrophenazine]
- MIC [1]: 0.224 µg/mL (≈ 0.447 µM)

SMILES: COc1ccc(Nc2cc3nc4ccccc4n(-c4ccc(C(F)(F)F)cc4)c-3c/c2=N\C2CCC2)cn1 [TBI-737, 5-(4-Trifluoromethylphenyl)-3-cyclobutylimino-2-(6-methoxy-3-pyridyl)amino-3,5-dihydrophenazine]
- MIC [1]: 0.119 µg/mL (≈ 0.231 µM)

SMILES: Cc1ccc(Nc2cc3nc4ccccc4n(-c4ccc(C(F)(F)F)cc4)c-3c/c2=N\C2CCC2)cn1 [TBI-738, 5-(4-Trifluoromethylphenyl)-3-cyclobutylimino-2-(6-methyl-3-pyridyl)amino-3,5-dihydrophenazine]
- MIC [1]: 0.029 µg/mL (≈ 0.0581 µM)

SMILES: COC1CCC(/N=c2\cc3n(-c4ccccc4C(F)(F)F)c4ccccc4nc-3cc2Nc2cccnc2)CC1 (stereo not shown) [TBI-739]
- MIC [1]: 0.239 µg/mL (≈ 0.44 µM)

SMILES: COc1ncccc1Nc1cc2nc3ccc(F)cc3n(-c3ccc(Cl)cc3)c-2c/c1=N\C(C)C [TBI-741, 5-(4-Chlorophenyl)-3-(1-methylethyl)imino-2-(2-methoxy-3-pyridyl)amino-7-fluoro-3,5-dihydrophenazine]
- MIC (μg/mL) against H37Rv [1]: 0.035 µg/mL (≈ 0.0717 µM)

SMILES: COCC(C/N=c1\cc2n(-c3ccc(C(F)(F)F)cc3)c3ccccc3nc-2cc1Nc1cccnc1OC)OC (stereo not shown) [TBI-744]
- MIC [1]: 0.059 µg/mL (≈ 0.105 µM)

SMILES: CC(C)/N=c1\cc2n(-c3cccc(Cl)c3)c3ccccc3nc-2cc1Nc1cccnc1 [TBI-810, 5-(3-Chlorophenyl)-3-(1-methylethyl)imino-2-(3-pyridyl)amino-3,5-dihydrophenazine]
- MIC [1]: 0.103 µg/mL (≈ 0.234 µM)

SMILES: O[C@H]1CC[C@H](/N=c2\cc3n(-c4cccc(Cl)c4)c4ccccc4nc-3cc2Nc2cccnc2)CC1 [TBI-811, 5-(3-Chlorophenyl)-3-(1′,4′-trans-4-hydroxycyclohexyl)imino-2-(3-pyridyl)amino-3,5-dihydrophenazine]
- MIC [1]: 0.5 µg/mL (≈ 1.01 µM)

SMILES: Clc1cccc(-n2c3c/c(=N\C4CC4)c(Nc4cccnc4)cc-3nc3ccccc32)c1 [TBI-812, 5-(3-Chlorophenyl)-3-cyclopropylimino-2-(3-pyridyl)amino-3,5-dihydrophenazine]
- MIC [1]: 0.013 µg/mL (≈ 0.0297 µM)

SMILES: Clc1cccc(-n2c3c/c(=N\C4CCC4)c(Nc4cccnc4)cc-3nc3ccccc32)c1 [TBI-814, 5-(3-Chlorophenyl)-3-cyclobutylimino-2-(3-pyridyl)amino-3,5-dihydrophenazine]
- MIC [1]: 0.04 µg/mL (≈ 0.0885 µM)

SMILES: COc1ncccc1Nc1cc2nc3ccccc3n(-c3cccc(Cl)c3)c-2c/c1=N\C1CCOCC1 [TBI-822, 5-(3-Chlorophenyl)-3-(4-tetrahydropyranyl)imino-2-(2-methoxy-3-pyridyl)amino-3,5-dihydrophenazine]
- MIC [1]: 0.125 µg/mL (≈ 0.244 µM)

SMILES: COc1ncccc1Nc1cc2nc3ccccc3n(-c3cccc(Cl)c3)c-2c/c1=N\C1CC1 [TBI-823, 5-(3-Chlorophenyl)-3-cyclopropylimino-2-(2-methoxy-3-pyridyl)amino-3,5-dihydrophenazine]
- MIC [1]: 0.03 µg/mL (≈ 0.0641 µM)

SMILES: COc1ncccc1Nc1cc2nc3ccccc3n(-c3cccc(Cl)c3)c-2c/c1=N\C1CCC1 [TBI-824, 5-(3-Chlorophenyl)-3-cyclobutylimino-2-(2-methoxy-3-pyridyl)amino-3,5-dihydrophenazine]
- MIC [1]: 0.06 µg/mL (≈ 0.124 µM)

SMILES: COCC(COC)/N=c1\cc2n(-c3cccc(Cl)c3)c3ccccc3nc-2cc1Nc1cccnc1OC [TBI-825, 5-(3-Chlorophenyl)-3-(1,3-dimethoxyisopropyl)imino-2-(2-methoxy-3-pyridyl)amino-3,5-dihydrophenazine]
- MIC [1]: 0.125 µg/mL (≈ 0.236 µM)

SMILES: COCC(C/N=c1\cc2n(-c3cccc(Cl)c3)c3ccccc3nc-2cc1Nc1cccnc1OC)OC (stereo not shown) [TBI-826, 5-(3-Chlorophenyl)-3-(2,3-dimethoxy-1-propyl)imino-2-(2-methoxy-3-pyridyl)amino-3,5-dihydrophenazine]
- MIC [1]: 0.125 µg/mL (≈ 0.236 µM)

SMILES: FC(F)(F)Oc1ccc(-n2c3c/c(=N\C4CCOCC4)c(Nc4ncccn4)cc-3nc3ccccc32)cc1 [TBI-830, 5-(4-Trifluoromethoxyphenyl)-3-(4-tetrahydropyranyl)imino-2-(pyrimidin-2-yl)amino-3,5-dihydrophenazine]
- MIC [2]: 0.014 µg/mL (≈ 0.0263 µM)

SMILES: COC1CCC(/N=c2\cc3n(-c4ccc(OC(F)(F)F)cc4)c4cc(F)ccc4nc-3cc2Nc2ccc(C)nc2)CC1 (stereo not shown) [TBI-852, 7-Fluoro-5-(4-trifluoromethoxyphenyl)-3-(4-methoxycyclohexyl)imino-2-(6-methyl-3-pyridyl)amino-3,5-dihydrophenazine]
- MIC [1]: 0.024 µg/mL (≈ 0.0406 µM)

SMILES: Cc1ccc(Nc2cc3nc4ccc(F)cc4n(-c4ccc(OC(F)(F)F)cc4)c-3c/c2=N\C2CCCCC2)cn1 [TBI-853, 7-Fluoro-5-(4-trifluoromethoxyphenyl)-3-cyclohexylimino-2-(6-methyl-3-pyridyl)amino-3,5-dihydrophenazine]
- MIC [1]: 0.025 µg/mL (≈ 0.0445 µM)

SMILES: Cc1ccc(Nc2cc3nc4ccc(F)cc4n(-c4ccc(OC(F)(F)F)cc4)c-3c/c2=N\C(C)C)cn1 [TBI-854, 7-Fluoro-5-(4-trifluoromethoxyphenyl)-3-(1-methylethyl)imino-2-(6-methyl-3-pyridyl)amino-3,5-dihydrophenazine]
- MIC [1]: 0.067 µg/mL (≈ 0.128 µM)

SMILES: COc1ncccc1Nc1cc2nc3ccc(F)cc3n(-c3ccc(OC(F)(F)F)cc3)c-2c/c1=N\C1CCOCC1 [TBI-855]
- MIC [1]: 0.193 µg/mL (≈ 0.333 µM)

SMILES: COc1ncccc1Nc1cc2nc3ccc(F)cc3n(-c3ccc(OC(F)(F)F)cc3)c-2c/c1=N\C1CCCCC1 [TBI-856, 7-Fluoro-5-(4-trifluoromethoxyphenyl)-3-cyclohexylimino-2-(2-methoxy-3-pyridyl)amino-3,5-dihydrophenazine]
- MIC [1]: 0.029 µg/mL (≈ 0.0502 µM)

SMILES: COc1ncccc1Nc1cc2nc3ccc(F)cc3n(-c3ccc(OC(F)(F)F)cc3)c-2c/c1=N\C1CC1 [TBI-857]
- MIC [1]: 0.045 µg/mL (≈ 0.084 µM)

SMILES: COc1ncccc1Nc1cc2nc3ccc(F)cc3n(-c3ccc(OC(F)(F)F)cc3)c-2c/c1=N\C(C)C [TBI-858, 7-Fluoro-5-(4-trifluoromethoxyphenyl)-3-(1-methylethyl)imino-2-(2-methoxy-3-pyridyl)amino-3,5-dihydrophenazine]
- MIC [1]: 0.08 µg/mL (≈ 0.149 µM)

SMILES: COc1ncccc1Nc1cc2nc3cc(F)ccc3n(-c3ccc(Cl)cc3)c-2c/c1=N\C1CC1 [TBI-859, 8-Fluoro-5-(4-chlorophenyl)-3-cyclopropylimino-2-(2-methoxy-3-pyridyl)amino-3,5-dihydrophenazine]
- MIC [1]: 0.015 µg/mL (≈ 0.0309 µM)

SMILES: Clc1ccc(-n2c3c/c(=N\C4CCOCC4)c(Nc4ncccn4)cc-3nc3ccccc32)cc1 [TBI-860, 5-(4-Chlorophenyl)-3-(4-tetrahydropyranyl)imino-2-(pyrimidin-2-yl)amino-3,5-dihydrophenazine]
- MIC [2]: 0.029 µg/mL (≈ 0.06 µM)

SMILES: COc1ncccc1Nc1cc2nc3cc(F)ccc3n(-c3ccc(OC(F)(F)F)cc3)c-2c/c1=N\C1CCC(OC)CC1 (stereo not shown) [TBI-861, 8-Fluoro-5-(4-trifluoromethoxyphenyl)-3-(4-methoxycyclohexyl)imino-2-(2-methoxy-3-pyridyl)amino-3,5-dihydrophenazine]
- MIC [1]: 0.058 µg/mL (≈ 0.0955 µM)

SMILES: COc1ncccc1Nc1cc2nc3cc(F)ccc3n(-c3ccc(OC(F)(F)F)cc3)c-2c/c1=N\C1CCCCC1 [TBI-862, 8-Fluoro-5-(4-trifluoromethoxyphenyl)-3-cyclohexylimino-2-(2-methoxy-3-pyridyl)amino-3,5-dihydrophenazine]
- MIC [1]: 0.088 µg/mL (≈ 0.152 µM)

SMILES: Cc1ccc(Nc2cc3nc4cc(F)ccc4n(-c4ccc(OC(F)(F)F)cc4)c-3c/c2=N\C(C)C)cn1 [TBI-863, 8-Fluoro-5-(4-trifluoromethoxyphenyl)-3-(1-methylethyl)imino-2-(6-methyl-3-pyridyl)amino-3,5-dihydrophenazine]
- MIC [1]: 0.061 µg/mL (≈ 0.117 µM)

SMILES: Cc1ccc(Nc2cc3nc4cc(F)ccc4n(-c4ccc(OC(F)(F)F)cc4)c-3c/c2=N\C2CC2)cn1 [TBI-864, 8-Fluoro-5-(4-trifluoromethoxyphenyl)-3-cyclopropylimino-2-(6-methyl-3-pyridyl)amino-3,5-dihydrophenazine]
- MIC [1]: 0.057 µg/mL (≈ 0.11 µM)

SMILES: Cc1ccc(Nc2cc3nc4cc(F)ccc4n(-c4ccc(OC(F)(F)F)cc4)c-3c/c2=N\C2CCCCC2)cn1 [TBI-865, 8-Fluoro-5-(4-trifluoromethoxyphenyl)-3-cyclohexylimino-2-(6-methyl-3-pyridyl)amino-3,5-dihydrophenazine]
- MIC [1]: 0.031 µg/mL (≈ 0.0552 µM)

SMILES: COC1CCC(/N=c2\cc3n(-c4ccc(OC(F)(F)F)cc4)c4ccc(F)cc4nc-3cc2Nc2ccc(C)nc2)CC1 (stereo not shown) [TBI-866, 8-Fluoro-5-(4-trifluoromethoxyphenyl)-3-(4-methoxycyclohexyl)imino-2-(6-methyl-3-pyridyl)amino-3,5-dihydrophenazine]
- MIC [1]: 0.027 µg/mL (≈ 0.0456 µM)

SMILES: COc1ccc2nc3cc(Nc4ccc(C)nc4)/c(=N/C4CCC(OC)CC4)cc-3n(-c3ccc(Cl)cc3)c2c1 (stereo not shown) [TBI-867, 7-Methoxy-5-(4-chlorophenyl)-3-(4-methoxycyclohexyl)imino-2-(6-methyl-3-pyridyl-amino)-3,5-dihydrophenazine]
- MIC [1]: 0.058 µg/mL (≈ 0.105 µM)

SMILES: COc1ccc2nc3cc(Nc4ccc(C)nc4)/c(=N/C4CC4)cc-3n(-c3ccc(Cl)cc3)c2c1 [TBI-868, 7-Methoxy-5-(4-chlorophenyl)-3-cyclopropylimino-2-(6-methyl-3-pyridyl)amino-3,5-dihydrophenazine]
- MIC [1]: 0.028 µg/mL (≈ 0.0581 µM)

SMILES: COc1ccc2nc3cc(Nc4ccc(C)nc4)/c(=N/C4CCCCC4)cc-3n(-c3ccc(Cl)cc3)c2c1 [TBI-869, 7-Methoxy-5-(4-chlorophenyl)-3-cyclohexylimino-2-(6-methyl-3-pyridyl)amino-3,5-dihydrophenazine]
- MIC [1]: 0.056 µg/mL (≈ 0.107 µM)

SMILES: COc1ncccc1Nc1cc2nc3ccccc3n(-c3ccccc3Cl)c-2c/c1=N\C1CCOCC1 [TBI-870]
- MIC [1]: 0.084 µg/mL (≈ 0.164 µM)

SMILES: COCC(COC)/N=c1\cc2n(-c3ccc(Cl)cc3)c3ccccc3nc-2cc1Nc1cccnc1OC [TBI-871, 5-(4-Chlorophenyl)-3-(1,3-dimethoxyisopropyl)imino-2-(2-methoxy-3-pyridyl)amino-3,5-dihydrophenazine]
- MIC [1]: 0.03 µg/mL (≈ 0.0566 µM)
